Measured values published in ChEMBL document CHEMBL1629605, “Effect of a single dose of ritonavir on the pharmacokinetic behavior of elvucitabine, a nucleoside reverse transcriptase inhibitor, administered in healthy volunteers” (Antimicrob Agents Chemother, 2009).

Experiments:
[1] = Terminal half life in human at 20 mg administered under fasting condition; type: ADME, organism-based; conditions: in vivo, read-out: beta t1/2 (converted)
[2] = Terminal half life in human at 20 mg administered under fasting condition presence of 300 mg of ritonavir; type: ADME, organism-based; conditions: in vivo, read-out: beta t1/2 (converted)
[3] = AUC (0 to 24 hrs) in human at 20 mg administered under fasting condition; type: ADME, organism-based; design: time < 24 hr, dose 20 mg; conditions: plasma
[4] = AUC (0 to t) in human at 20 mg administered under fasting condition; type: ADME, organism-based; conditions: plasma
[5] = AUC (0 to infinity) in human at 20 mg administered under fasting condition; type: ADME, organism-based; design: dose 20 mg, time infinity; conditions: plasma
[6] = Cmax in human at 20 mg administered under fasting condition; conditions: in vivo
[7] = Clearance in human at 20 mg administered under fasting condition; type: ADME, organism-based; conditions: in vivo
[8] = Tmax in human at 20 mg administered under fasting condition; type: ADME, organism-based; conditions: in vivo
[9] = Half life in human at 20 mg administered under fasting condition; type: ADME, organism-based; conditions: in vivo
[10] = AUC (0 to 24 hrs) in human at 20 mg administered under fasting condition in presence of 300 mg of ritonavir; type: ADME, organism-based; design: time < 24 hr, dose 20 mg; conditions: plasma
[11] = AUC (0 to t) in human at 20 mg administered under fasting condition in presence of 300 mg of ritonavir; type: ADME, organism-based; conditions: plasma
[12] = AUC (0 to infinity) in human at 20 mg administered under fasting condition in presence of 300 mg of ritonavir; type: ADME, organism-based; design: dose 20 mg, time infinity; conditions: plasma
[13] = Apparent oral clearance in human at 20 mg administered under fasting condition; type: ADME, organism-based; conditions: in vivo
[14] = Apparent oral clearance in human at 20 mg administered under fasting condition presence of 300 mg of ritonavir; type: ADME, organism-based; conditions: in vivo
Homo sapiens [15] = experiment: Central volume of distribution with respect to the bioavailability in human at 20 mg administered under fasting condition presence of 300 mg of ritonavir; type: ADME, organism-based; conditions: in vivo
Homo sapiens [16] = experiment: Distributional clearance with respect to the bioavailability in human at 20 mg administered under fasting condition; type: ADME, organism-based; conditions: in vivo
Homo sapiens [17] = experiment: Distributional clearance with respect to the bioavailability in human at 20 mg administered under fasting condition presence of 300 mg of ritonavir; type: ADME, organism-based; conditions: in vivo
Homo sapiens [18] = experiment: Peripheral volume of distribution with respect to the bioavailability in human at 20 mg administered under fasting condition; type: ADME, organism-based; conditions: in vivo
Homo sapiens [19] = experiment: Peripheral volume of distribution with respect to the bioavailability in human at 20 mg administered under fasting condition presence of 300 mg of ritonavir; type: ADME, organism-based; conditions: in vivo
[20] = Volume of distribution at steady state with respect to the bioavailability in human at 20 mg administered under fasting condition; type: ADME, organism-based; conditions: in vivo, read-out: Vss/F
[21] = Volume of distribution at steady state with respect to the bioavailability in human at 20 mg administered under fasting condition presence of 300 mg of ritonavir; type: ADME, organism-based; conditions: in vivo, read-out: Vss/F
[22] = Clearance in human at 20 mg administered under fasting condition in presence of 300 mg of ritonavir; type: ADME, organism-based; conditions: in vivo
[23] = Tmax in human at 20 mg administered under fasting condition in presence of 300 mg of ritonavir; type: ADME, organism-based; conditions: in vivo
[24] = Half life in human at 20 mg administered under fasting condition in presence of 300 mg of ritonavir; type: ADME, organism-based; conditions: in vivo
[25] = Central volume of distribution with respect to the bioavailability in human at 20 mg administered under fasting condition; type: ADME, organism-based; conditions: in vivo, read-out: Vc/F
Homo sapiens [26] = experiment: Time prior to start absorption at first absorption site in human at 20 mg administered under fasting condition; type: ADME, organism-based; conditions: in vivo
Homo sapiens [27] = experiment: Time prior to start absorption at first absorption site in human at 20 mg administered under fasting condition presence of 300 mg of ritonavir; type: ADME, organism-based; conditions: in vivo
Homo sapiens [28] = experiment: Time prior to start absorption at second absorption site in human at 20 mg administered under fasting condition; type: ADME, organism-based; conditions: in vivo
Homo sapiens [29] = experiment: Time prior to start absorption at second absorption site in human at 20 mg administered under fasting condition presence of 300 mg of ritonavir; type: ADME, organism-based; conditions: in vivo
Homo sapiens [30] = experiment: Absorption rate constant at first absorption site in human at 20 mg administered under fasting condition; type: ADME, organism-based; conditions: in vivo
Homo sapiens [31] = experiment: Absorption rate constant at first absorption site in human at 20 mg administered under fasting condition presence of 300 mg of ritonavir; type: ADME, organism-based; conditions: in vivo
Homo sapiens [32] = experiment: Absorption rate constant at second absorption site in human at 20 mg administered under fasting condition; type: ADME, organism-based; conditions: in vivo
Homo sapiens [33] = experiment: Absorption rate constant at second absorption site in human at 20 mg administered under fasting condition presence of 300 mg of ritonavir; type: ADME, organism-based; conditions: in vivo
clinical = conditions: human, in vivo
Description: Cmax in human at 20 mg administered under fasting condition in presence of 300 mg of ritonavir

half-life [1]: 58.6 h | half-life [2]: 60.2 h | AUC(0-t) at 24 h [3]: 732 ng·h/mL | AUC(0-t) [4]: 1030 ng·h/mL | AUC(0-inf) [5]: 1240 ng·h/mL | Cmax [6]: 136 ng/mL | clearance [7]: 293 mL/min | Tmax [8]: 3.78 h | half-life [9]: 59.1 h | AUC(0-t) at 24 h [10]: 568 ng·h/mL | AUC(0-t) [11]: 790 ng·h/mL | AUC(0-inf) [12]: 979 ng·h/mL | CL/F [13]: 297 mL/min | CL/F [14]: 487 mL/min | Vc/F (Homo sapiens [15]): 24.8 L | CLd/F (Homo sapiens [16]): 16.3 L/h | CLd/F (Homo sapiens [17]): 19.3 L/h | Vp/F (Homo sapiens [18]): 703 L | Vp/F (Homo sapiens [19]): 897 L | Vd/F [20]: 729 L | Vd/F [21]: 921 L | clearance [22]: 467 mL/min | Tmax [23]: 5.12 h | half-life [24]: 54.2 h | Vd/F [25]: 26.1 L | Time (Homo sapiens [26]): 1.6 h | Time (Homo sapiens [27]): 2.96 h | Time (Homo sapiens [28]): 2.3 h | Time (Homo sapiens [29]): 3.54 h | ka (Homo sapiens [30]): 0.183 h⁻¹ | ka (Homo sapiens [31]): 0.127 h⁻¹ | ka (Homo sapiens [32]): 0.459 h⁻¹ | ka (Homo sapiens [33]): 0.483 h⁻¹ | Cmax (clinical): 102 ng/mL
Structure (SMILES): Nc1nc(=O)n([C@@H]2C=C[C@H](CO)O2)cc1F [ELVUCITABINE]
